Data taken from patent US20050075494A1, “Isolated nucleic acid molecules encoding a human and mouse g protein-coupled receptor-gpr54: encoded proteins, cells transformed therewith and uses thereof” (priority 2000, published 2005).

What was measured:
Format in all cases: cell-based
[1] = tested on: Control cells (cells that do not express rat GPR54); assay: β-lactamase reporter assay in control cells; conditions: data not shown
Method: β-lactamase assays were carried as described by (Zlokarnik et al., 1998, Quantitation of transcription and clonal selection of single living cells with beta-lactamase as reporter. Science 1998, 279:84-88). All peptides were from Phoenix Pharmaceuticals. Cells were seeded two days prior to assay. The day before being assayed, cells were changed to serum-free media. Four (4) hours after the addition of ligands, cells were loaded with dye and measured for fluorescence approximately 45 minutes later.
These peptides were then individually tested against GPR54-expressing cells.

Human GPR54 receptor = target: T1, Human GPR54 receptor (Homo sapiens, UniProt Q969F8, L364H); assay: aequorin assay in HEK293/aeq17 cells expressing human GPR54; conditions: aequorin luminescence, 5-fold serial dilutions, triplicates
T1 construct: Clones containing full-length GPR54 were thus identified; expressed in transfected cells
Method: The HEK293/aeq17 cell line was licensed in from NIH (Button and Brownstein, 1993, Cell Calcium, 14:663-671). The cells were grown in Dulbecco's Modified Medium (MEM, GIBCO-BRL, Gaithersburg, Md., USA)+10% fetal bovine serum (heat inactivated), 1 mM sodium pyruvate, 500 ug/ml Geneticin, 100 ug/ml streptomycin, 100 units/ml penicillin. […] Puromycin-resistant clones were selected and bulk stables were used for further analysis.
For the aequorin assay, cell were washed once with DMEM+0.1% fetal bovine serum, and then charged for one hour at 37° C. 15% CO2 in DMEM containing 8 uM coelenterazine cp (Molecular Probes, Eugene, Oreg., USA) and 30 uM glutathione. […] The cell density was determined by counting with a hemacytometer and adjusted to 500,000 cells/ml in ECB.
The neuropeptides were diluted in ECB into 2× concentrates using 5-fold serial dilutions, and aliquoted into assay plates in triplicates at 0.1 ml/well. The cell suspension was injected at 0.1 ml/well, read and integrated for a total of 400 readings using a luminometer (Luminoskan Ascent, Labsystems Oy, Helsinki, Finland). Data was analyzed using the software GraphPad Prism Version 3.0 (GraphPad Software, Inc., San Diego, Calif., USA).

rat GPR54 = target: T2, rat GPR54 (Rattus norvegicus, UniProt Q924U1); assay: β-lactamase reporter enzyme assay in CHO-NPAT-bla cells expressing rat GPR54
T2 construct: expressed in transfected cells
Method: The full-length coding sequence of rat GPR54 was sub-cloned into the expression vector pIRESpuromycin (Clontech, Palo Alto, Calif., USA) in accordance with the manufactures directions. This GPR54 plasmid was transfected into Aurora's CHO-NPAT-bla cells using the reagent Lipofectamine 2000 (GIBCO-BRL, Gaithersburg, Md., USA). Puromycin-resistant bulk stables expressing rat GPR54 were selected and used for screening for agonist.
β-lactamase assays were carried as described by (Zlokarnik et al., 1998, Quantitation of transcription and clonal selection of single living cells with beta-lactamase as reporter. Science 1998, 279:84-88). All peptides were from Phoenix Pharmaceuticals. […] Four (4) hours after the addition of ligands, cells were loaded with dye and measured for fluorescence approximately 45 minutes later.
An extremely sensitive transcription-based assay is disclosed in Zlokarnik et al., 1998, Science 279:84-88 (Zlokarnik) and also in U.S. Pat. No. 5,741,657, both of which are incorporated by reference in their entirety herein. […] This increase in β-lactamase is measured by treating the cells with a cell-permeable dye that is a substrate for cleavage by β-lactamase. […] In the intact dye, the two fluorescent moieties are physically linked, and thus close enough to one another that fluorescence resonance energy transfer FRET) can take place between them. […]

T2 sequence (Q924U1 whole entry): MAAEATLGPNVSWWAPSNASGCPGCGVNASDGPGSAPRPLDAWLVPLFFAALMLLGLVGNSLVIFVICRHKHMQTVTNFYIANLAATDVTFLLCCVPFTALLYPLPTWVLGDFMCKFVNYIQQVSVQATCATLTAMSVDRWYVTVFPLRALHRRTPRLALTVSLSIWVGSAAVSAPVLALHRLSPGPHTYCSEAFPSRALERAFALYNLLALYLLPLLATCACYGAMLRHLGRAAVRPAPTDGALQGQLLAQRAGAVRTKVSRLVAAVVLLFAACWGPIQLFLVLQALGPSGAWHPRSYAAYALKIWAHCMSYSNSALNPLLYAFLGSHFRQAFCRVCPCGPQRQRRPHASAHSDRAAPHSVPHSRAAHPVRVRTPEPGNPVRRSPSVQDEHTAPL
T1 sequence (Q969F8 whole entry L364H): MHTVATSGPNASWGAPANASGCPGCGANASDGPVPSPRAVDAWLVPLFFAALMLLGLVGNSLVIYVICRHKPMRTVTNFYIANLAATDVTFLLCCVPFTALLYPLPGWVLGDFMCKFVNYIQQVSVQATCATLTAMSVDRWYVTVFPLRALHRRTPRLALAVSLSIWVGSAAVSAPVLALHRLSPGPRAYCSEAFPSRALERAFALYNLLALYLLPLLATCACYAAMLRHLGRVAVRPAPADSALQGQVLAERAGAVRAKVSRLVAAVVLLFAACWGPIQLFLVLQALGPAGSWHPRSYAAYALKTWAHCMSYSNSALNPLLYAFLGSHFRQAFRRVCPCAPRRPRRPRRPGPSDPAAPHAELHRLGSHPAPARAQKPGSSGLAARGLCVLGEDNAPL

Row | Substance | response of control cells [1] | response of cells expressing Human GPR54 receptor (FIG. 9) (Human GPR54 receptor) | dose-response activation of rat GPR54 (FIG. 8) (rat GPR54; peptides individually tested against GPR54-expressing cells) | activation of rat GPR54 in the primary screening (rat GPR54; primary agonist screening, cells expressing rat GPR54, β-lactamase readout 4 hours after ligand addition)
1 | antho-RWamide I | no response | robust, dose-dependent response | activated rat GPR54 in a dose-dependent manner | activate rat GPR54 specifically
2 | antho-RW amide II | – | robust, dose-dependent response | – | –
